{"source": "patent US20170121344A1", "about": "(Siga Technologies, Inc., priority 2009, published 2017)", "test_system": "Dengue-2 (Strain New Guinea C)", "experiment": "Viral yield assay against Dengue-2 in Vero cells", "type": "cell-based, Dengue virus", "conditions": "Dengue virus; for EC50: read-out: Activity (EC50 in μM) DENV-2; for pEC50: read-out: Activity (EC50 class) against Dengue-2 Virus in Vero cells", "protocol": "Compounds that were active in the primary screen were tested for activity in viral yield assays. […] Vero cells in 12-well plates were infected with dengue-2 virus at a multiplicity of infection (MOI) of 0.1, treated with compound (or DMSO as a control), incubated at 37° C., harvested 48 hours post infection and titered on Vero cells as described above. The EC50 was calculated through ExcelFit. Activities against other serotypes of dengue virus were determined in a similar way.", "key": {"[1]": {"conditions": "DENV2, viral yield assay, Vero cells, MOI 0.1, 48 hours post infection"}, "[2]": {"conditions": "Vero cells, MOI 0.1, harvested 48 hours post infection"}}, "note": "pEC50: −log10 of the molar value. Where two headings read alike, the source gives them in different places.", "data": [{"smiles": "O=C(Nc1ccccc1)c1sc2ncccc2c1OCc1ccc(Cl)c(Cl)c1", "note": "[Compound 379, 3-[(3,4-dichlorophenyl)methoxy]-N-phenyl-thieno[2,3-b]pyridine-2-carboxamide]", "values": [{"measurement": "EC50", "setting": "[1]", "value": "< 5", "unit": "µM"}]}, {"smiles": "N#Cc1c(N)nc2sc(C(=O)Nc3ccc(Br)cc3)c(N)c2c1-c1ccco1", "note": "[Compound 6, 3,6-Diamino-5-cyano-4-furan-2-yl-thieno[2,3-b]pyridine-2-carboxylic acid (4-bromo-phenyl)-amide]", "values": [{"measurement": "pEC50", "setting": "[2]", "value": "> 5.30"}]}, {"smiles": "CC(=O)c1ccc(NC(=O)c2sc3nc4c(c(-c5ccccc5)c3c2N)CN(C)CC4)cc1", "note": "[Compound 51, 3-Amino-6-methyl-4-phenyl-5,6,7,8-tetrahydro-thieno[2,3-b][1,6]naphthyridine-2-carboxylic acid (4-acetyl-phenyl)-amide]", "values": [{"measurement": "pEC50", "setting": "[2]", "value": "> 5.30"}]}, {"smiles": "Cc1cc(C)c2c(N)c(C(=O)Nc3ccccc3F)sc2n1", "note": "[Compound 178, 3-Amino-4,6-dimethyl-thieno[2,3-b]pyridine-2-carboxylic acid (2-fluoro-phenyl)-amide]", "values": [{"measurement": "pEC50", "setting": "Vero, 48 h", "value": "< 4.60"}]}, {"smiles": "CC(=O)c1cnc2sc(C(=O)Nc3cccc(F)c3)c(C)c2c1", "note": "[Compound 391, 5-acetyl-N-(3-fluorophenyl)-3-methyl-thieno[2,3-b]pyridine-2-carboxamide]", "values": [{"measurement": "EC50", "setting": "[1]", "value": "< 5", "unit": "µM"}]}, {"smiles": "CN1CCc2nc3sc(C(=O)Nc4c(Cl)cccc4Cl)c(N)c3cc2C1", "note": "[Compound 109, 3-Amino-6-methyl-5,6,7,8-tetrahydro-thieno[2,3-b][1,6]naphthyridine-2-carboxylic acid (2,6-dichloro-phenyl)-amide]", "values": [{"measurement": "pEC50", "setting": "[2]", "value": "4.60 to 5.30"}]}, {"smiles": "Cc1ccc(NC(=O)c2sc3nc4c(cc3c2N)CN(C)CC4)cc1Cl", "note": "[Compound 45, 3-Amino-6-methyl-5,6,7,8-tetrahydro-thieno[2,3-b][1,6]naphthyridine-2-carboxylic acid (3-chloro-4-methyl-phenyl)-amide]", "values": [{"measurement": "pEC50", "setting": "[2]", "value": "> 5.30"}]}, {"smiles": "O=c1[nH]cnc2c1sc1nc(-c3cccs3)ccc12", "note": "[Compound 412, 7-(thiophen-2-yl)pyrido[3′,2′:4,5]thieno [3,2-d]pyrimidin-4(3H)-one]", "values": [{"measurement": "EC50", "setting": "[1]", "value": "5 to 25", "unit": "µM"}]}, {"smiles": "N#Cc1cc2c(N)c(C(=O)Nc3ccc(S(N)(=O)=O)cc3)sc2nc1N", "note": "[Compound 136, 3,6-Diamino-5-cyano-thieno[2,3-b]pyridine-2-carboxylic acid (4-sulfamoyl-phenyl)-amide]", "values": [{"measurement": "pEC50", "setting": "[2]", "value": "< 4.60"}]}, {"smiles": "COCc1cc(C)nc2sc(C(=O)Nc3cc(Cl)ccc3Cl)c(N)c12", "note": "[Compound 211, 3-Amino-4-methoxymethyl-6-methyl-thieno[2,3-b]pyridine-2-carboxylic acid (2,5-dichloro-phenyl)-amide]", "values": [{"measurement": "pEC50", "setting": "[2]", "value": "< 4.60"}]}, {"smiles": "COc1cc(-c2c(C#N)c(N)nc3sc(C(N)=O)c(N)c23)cc(OC)c1OC", "note": "[Compound 155, 3,6-Diamino-5-cyano-4-(3,4,5-trimethoxy-phenyl)-thieno[2,3-b]pyridine-2-carboxylic acid amide]", "values": [{"measurement": "pEC50", "setting": "[2]", "value": "< 4.60"}]}, {"smiles": "COCc1cc(C)nc2sc(C(=O)Nc3ccc(C(C)=O)cc3)c(N)c12", "note": "[Compound 141, 3-Amino-4-methoxymethyl-6-methyl-thieno[2,3-b]pyridine-2-carboxylic acid (4-acetyl-phenyl)-amide]", "values": [{"measurement": "pEC50", "setting": "[2]", "value": "< 4.60"}]}, {"smiles": "Nc1c(C(=O)Nc2nccs2)sc2nc3c(c(-c4ccccc4Cl)c12)CCCC3", "note": "[Compound 10, 3-Amino-4-(2-chloro-phenyl)-5,6,7,8-tetrahydro-thieno[2,3-b]quinoline-2-carboxylic acid thiazol-2-ylamide]", "values": [{"measurement": "pEC50", "setting": "Vero, 48 h", "value": "> 5.30"}]}, {"smiles": "Nc1c(C(=O)Nc2ccc(C(=O)O)cc2)sc2nc(-c3ccc(Cl)cc3)ccc12", "note": "[Compound 334, 4-[[3-amino-6-(4-chlorophenyl)thieno [2,3-b]pyridine-2-carbonyl]amino] benzoic acid]", "values": [{"measurement": "EC50", "setting": "[1]", "value": "< 5", "unit": "µM"}]}, {"smiles": "COc1ccc(NC(=O)c2sc3nc(-c4cccs4)ccc3c2N)cc1OC", "note": "[Compound 444, 3-amino-N-(3,4-dimethoxyphenyl)-6-(2-thienyl)thieno[2,3-b]pyridine-2-carboxamide]", "values": [{"measurement": "EC50", "setting": "DENV2, Vero, 48 h", "value": "< 5", "unit": "µM"}]}, {"smiles": "CCN(CC)c1ccc(NC(=O)c2sc3nc4c(cc3c2N)CN(C)CC4)cc1", "note": "[Compound 276, 3-Amino-6-methyl-5,6,7,8-tetrahydro-thieno[2,3-b][1,6]naphthyridine-2-carboxylic acid (4-diethylamino-phenyl)-amide]", "values": [{"measurement": "pEC50", "setting": "[2]", "value": "< 4.60"}]}, {"smiles": "Cc1cc(C)c2c(C)c(C(=O)Nc3nc4ccccc4s3)sc2n1", "note": "[Compound 392, N-(1,3-benzothiazol-2-yl)-3,4,6-trimethyl-thieno[2,3-b]pyridine-2-carboxamide]", "values": [{"measurement": "EC50", "setting": "[1]", "value": "5 to 25", "unit": "µM"}]}, {"smiles": "COc1cccc(-c2ccc3c(N)c(C(=O)Nc4ccc(F)cc4Cl)sc3n2)c1", "note": "[Compound 557, 3-amino-N-(2-chloro-4-fluoro-phenyl)-6-(3-methoxyphenyl)thieno[2,3-b] pyridine-2-carboxamide]", "values": [{"measurement": "EC50", "setting": "[1]", "value": "< 5", "unit": "µM"}]}, {"smiles": "CCOc1ccc(-c2c3c(nc4sc(C(=O)Nc5nccs5)c(N)c24)CCCC3)cc1", "note": "[Compound 241, 3-Amino-4-(4-ethoxy-phenyl)-5,6,7,8-tetrahydro-thieno[2,3-b]quinoline-2-carboxylic acid thiazol-2-ylamide]", "values": [{"measurement": "pEC50", "setting": "[2]", "value": "< 4.60"}]}, {"smiles": "COc1ccc(NC(=O)c2sc3nc(C)cc(C)c3c2N)cc1", "note": "[Compound 163, 3-Amino-4,6-dimethyl-thieno[2,3-b]pyridine-2-carboxylic acid (4-methoxy-phenyl)-amide]", "values": [{"measurement": "pEC50", "setting": "Vero, 48 h", "value": "< 4.60"}]}, {"smiles": "CN1CCc2nc3sc(C(=O)NCc4ccc5c(c4)OCO5)c(N)c3cc2C1", "note": "[Compound 269, 3-Amino-6-methyl-5,6,7,8-tetrahydro-thieno[2,3-b][1,6]naphthyridine-2-carboxylic acid (benzo[1,3]dioxol-5-ylmethyl)-amide]", "values": [{"measurement": "pEC50", "setting": "[2]", "value": "< 4.60"}]}, {"smiles": "COc1cccc(-c2ccc3c(N)c(C(=O)Nc4ccc(C(C)=O)cc4)sc3n2)c1", "note": "[Compound 513, N-(4-acetylphenyl)-3-amino-6-(3-methoxyphenyl)thieno[2,3-b]pyridine-2-carboxamide]", "values": [{"measurement": "EC50", "setting": "DENV2, Vero, 48 h", "value": "< 5", "unit": "µM"}]}, {"smiles": "COc1ccc(Cl)cc1NC(=O)c1sc2nc(-c3ccc4c(c3)OCO4)ccc2c1N", "note": "[Compound 594, 3-amio-6-(1,3-benzodioxol-5-yl)-N-(5-chloro-2-methoxy-phenyl)thieno[2,3-b] pyridine-2-carboxamide]", "values": [{"measurement": "EC50", "setting": "[1]", "value": "< 5", "unit": "µM"}]}, {"smiles": "CCOC(=O)c1c(NC(=O)c2sc3nc4c(cc3c2N)CN(C)CC4)sc2c1CCCC2", "note": "[Compound 57, 2-[(3-Amino-6-methyl-5,6,7,8-tetrahydro-thieno[2,3-b][1,6]naphthyridine-2-carbonyl)-amino]-4,5,6,7-tetrahydro-benzo[b]thiophene-3-carboxylic acid ethyl ester]", "values": [{"measurement": "pEC50", "setting": "[2]", "value": "> 5.30"}]}, {"smiles": "COCc1cc(C)nc2sc(C(=O)Nc3cc(C)ccc3F)c(N)c12", "note": "[Compound 242, 3-Amino-4-methoxymethyl-6-methyl-thieno[2,3-b]pyridine-2-carboxylic acid (2-fluoro-5-methyl-phenyl)-amide]", "values": [{"measurement": "pEC50", "setting": "[2]", "value": "< 4.60"}]}, {"smiles": "COc1cccc(-c2ccc3c(N)c(C(=O)Nc4ccc(Cl)cc4F)sc3n2)c1", "note": "[Compound 519, 3-amino-N-(4-chloro-2-fluoro-phenyl)-6-(3-methoxyphenyl)thieno[2,3-b]pyridine-2-carboxamide]", "values": [{"measurement": "EC50", "setting": "[1]", "value": "< 5", "unit": "µM"}]}, {"smiles": "Nc1c(C(=O)Nc2ccc(S(N)(=O)=O)cc2)sc2nc3c(cc12)CCC3", "note": "[Compound 144, 3-Amino-6,7-dihydro-5H-cyclopenta[b]thieno[3,2-e]pyridine-2-carboxylic acid (4-sulfamoyl-phenyl)-amide]", "values": [{"measurement": "pEC50", "setting": "[2]", "value": "< 4.60"}]}, {"smiles": "Nc1c(C(=O)Nc2nnc(-c3ccccc3)s2)sc2nc3c(cc12)CCC3", "note": "[Compound 88, 3-Amino-6,7-dihydro-5H-cyclopenta[b]thieno[3,2-e]pyridine-2-carboxylic acid (5-phenyl-[1,3,4]thiadiazol-2-yl)-amide]", "values": [{"measurement": "pEC50", "setting": "[2]", "value": "4.60 to 5.30"}]}, {"smiles": "Cc1cc(C)c2c(N)c(C(=O)Nc3ccc(F)c(Cl)c3)sc2n1", "note": "[Compound 200, 3-Amino-4,6-dimethyl-thieno[2,3-b]pyridine-2-carboxylic acid (3-chloro-4-fluoro-phenyl)-amide]", "values": [{"measurement": "pEC50", "setting": "Vero, 48 h", "value": "< 4.60"}]}, {"smiles": "O=C(Nc1ccccc1Cl)c1sc2ncccc2c1O", "note": "[Compound 382, N-(2-chlorophenyl)-3-hydroxy-thieno[2,3-b]pyridine-2-carboxamide]", "values": [{"measurement": "EC50", "setting": "[1]", "value": "5 to 25", "unit": "µM"}]}, {"smiles": "COCc1cc(C)nc2sc3c(=O)n(-c4ccc(C(C)=O)cc4)nnc3c12", "note": "[Compound 156, 3-(4-Acetyl-phenyl)-9-methoxymethyl-7-methyl-3H-pyrido[3′,2′:4,5]thieno[3,2-d][1,2,3]triazin-4-one]", "values": [{"measurement": "pEC50", "setting": "[2]", "value": "< 4.60"}]}, {"smiles": "Cc1ccc(NC(=O)c2sc3nc(C)cc(C(F)(F)F)c3c2N)cc1", "note": "[Compound 165, 3-Amino-6-methyl-4-trifluoromethyl-thieno[2,3-b]pyridine-2-carboxylic acid p-tolylamide]", "values": [{"measurement": "pEC50", "setting": "[2]", "value": "< 4.60"}]}, {"smiles": "COCc1cc(C)nc2sc(C(=O)Nc3ccc(N4CCOCC4)cc3)c(N)c12", "note": "[Compound 243, 3-Amino-4-methoxymethyl-6-methyl-thieno[2,3-b]pyridine-2-carboxylic acid (4-morpholin-4-yl-phenyl)-amide]", "values": [{"measurement": "pEC50", "setting": "[2]", "value": "< 4.60"}]}, {"smiles": "Cc1ccc(NC(=O)c2sc3nc(-c4ccc(Cl)cc4)ccc3c2N)cc1C", "note": "[Compound 348, 3-amino-6-(4-chlorophenyl)-N-(3,4-dimethyl-phenyl)thieno [2,3-b]pyridine-2-carboxamide]", "values": [{"measurement": "EC50", "setting": "[1]", "value": "< 5", "unit": "µM"}]}, {"smiles": "O=C(Nc1ccc(Cl)cc1)c1sc2ncccc2c1OCc1ccc(Cl)c(Cl)c1", "note": "[Compound 376, N-(4-chlorophenyl)-3-[(3,4-dichlorophenyl)methoxy]thieno[2,3-b] pyridine-2-carboxamide]", "values": [{"measurement": "EC50", "setting": "[1]", "value": "5 to 25", "unit": "µM"}]}, {"smiles": "CC1(C)CC(=O)c2cc3c(N)c(C(=O)NCc4ccco4)sc3nc2C1", "note": "[Compound 95, 3-Amino-7,7-dimethyl-5-oxo-5,6,7,8-tetrahydro-thieno[2,3-b]quinoline-2-carboxylic acid (furan-2-ylmethyl)-amide]", "values": [{"measurement": "pEC50", "setting": "Vero, 48 h", "value": "4.60 to 5.30"}]}]}
